Measured values as given in patent US20110245249A1, “Heterocyclically Substituted Anilinopyrimidines” (Bayer CropScience AG, priority 2008, published 2011).

Assay: logP by HPLC on reversed-phase columns (EEC Directive 79/831 Annex V.A8)
Assay type: physicochemical
Settings: for log p [a]: pH 2.3
Protocol: The logP values were measured in accordance with EEC Directive 79/831 Annex V.A8 by HPLC (High Performance Liquid Chromatography) on reversed-phase columns (C 18) using the methods below:
[a] The determination was carried out in the acidic range at pH 2.3 using the mobile phases 0.1% aqueous phosphoric acid and acetronitrile linear gradient from 10% acetonitrile to 95% acetronitrile. [b] The LC-MS determination in the acid range was carried out at pH 2.7 using the mobile phases 0.1% aqueous formic acid and acetonitrile (contains 0.1% formic acid) linear gradient from 10% acetonitrile to 95% acetonitrile. [c] The LC-MS determination in the neutral range was carried out at pH 7.8 using the mobile phases 0.001 molar aqueous ammonium bicarbonate solution and acetonitrile linear gradient from 10% acetonitrile to 95% acetonitrile.

Row | SMILES | log p [b] (pH 2.7) | log p [c] (pH 7.8) | log p [a] | log p (pH 2.7) | log p (pH 7.8)
1 | CC1COC(C)(c2cccc(Nc3ncc(C(F)(F)F)c(NC4CC4)n3)c2)O1 (stereo not drawn) [Example 72] | 3.52 | 3.94 |  |  | 
2 | CC1(C)COC(C)(c2cccc(Nc3ncc(C(F)(F)F)c(NC4CC4)n3)c2)OC1 [Example 73] | 4.32 | 4.7 |  |  | 
3 | CCC1(c2cccc(Nc3ncc(Cl)c(NC4CC4)n3)c2)OCC(C)O1 (stereo not drawn) [Example 74] | 2.67 | 4.1 |  |  | 
4 | CC1CC1Nc1nc(Nc2cccc(C3OCCO3)c2)ncc1Cl (stereo not drawn) [Example 75] |  | 3.21[c] |  |  | 
5 | CC1CC1Nc1nc(Nc2cccc(C3(C)OCCO3)c2)ncc1Cl (stereo not drawn) [Example 76] | 2.32 | 3.67 |  |  | 
6 | Brc1cnc(Nc2ccc(C3OCCCO3)cc2)nc1NC1CCC1 [Example 77] | 2.2 | 3.61 |  |  | 
7 | FC(F)(F)c1cnc(Nc2ccc(C3OCCCO3)cc2)nc1NC1CC1 [Example 78] | 2.72 | 3.21 |  |  | 
8 | Brc1cnc(Nc2cccc(C3OCC(C4CC4)CO3)c2)nc1NC1CC1 (stereo not drawn) [Example 79] | 2.77 | 4.03 |  |  | 
9 | Clc1cnc(Nc2cccc(C3OCC(C4CC4)CO3)c2)nc1NC1CCC1 (stereo not drawn) [Example 80] | 2.93 | 4.43 |  |  | 
10 | C=C1COC(c2cccc(Nc3ncc(Br)c(NC4CC4)n3)c2)OC1 [Example 81] | 2.1 | 3.27 |  |  | 
11 | C=C1COC(c2cccc(Nc3ncc(Br)c(NC4CCC4)n3)c2)OC1 [Example 82] | 2.43 | 3.85 |  |  | 
12 | CC1COC(c2cccc(Nc3ncc(C(F)(F)F)c(NC4CC4)n3)c2)O1 (stereo not drawn) [Example 83] | 2.94[b] | 3.45 | 2.44 |  | 
13 | CC1COC(c2cccc(Nc3ncc(Br)c(NC4CC4)n3)c2)O1 (stereo not drawn) [Example 84] | 2.03 | 3.25 |  |  | 
14 | CC1COC(c2cccc(Nc3ncc(Br)c(NC4CCC4)n3)c2)O1 (stereo not drawn) [Example 85] | 2.39 | 3.84 |  |  | 
15 | CC1COC(c2cccc(Nc3ncc(Cl)c(NC4CCC4)n3)c2)O1 (stereo not drawn) [Example 86] | 2.2 | 3.68 |  |  | 
16 | CC1COC(c2cccc(Nc3ncc(C(F)(F)F)c(NC4CCC4)n3)c2)O1 (stereo not drawn) [Example 87] | 3.51 | 4.04 |  |  | 
17 | CCC1COC(c2cccc(Nc3ncc(C(F)(F)F)c(NC4CC4)n3)c2)O1 (stereo not drawn) [Example 88] | 3.48 | 3.9 |  |  | 
18 | CCC1COC(c2cccc(Nc3ncc(Br)c(NC4CCC4)n3)c2)O1 (stereo not drawn) [Example 89] | 2.88 | 4.35 |  |  | 
19 | CCC1COC(c2cccc(Nc3ncc(Cl)c(NC4CCC4)n3)c2)O1 (stereo not drawn) [Example 90] | 2.65 | 4.18 |  |  | 
20 | C=C1COC(c2cccc(Nc3ncc(Cl)c(NC4CCC4)n3)c2)OC1 [Example 91] |  | 3.73[c] |  |  | 
21 | C=C1COC(c2cccc(Nc3ncc(Cl)c(NC4CC4)n3)c2)OC1 [Example 92] | 2.01 | 3.18 |  |  | 
22 | Clc1cnc(Nc2cccc(C3OCC(C4CC4)CO3)c2)nc1NC1CC1 (stereo not drawn) [Example 93] | 2.6 | 3.91 |  |  | 
23 | Clc1cnc(Nc2cccc(C3OCCC(c4ccccc4)O3)c2)nc1NC1CC1 (stereo not drawn) [Example 94] | 2.83 | 4.11 |  |  | 

Row | SMILES | log p [b] (pH 2.7) | log p [c] (pH 7.8) | log p [a] | log p (pH 2.7) | log p (pH 7.8)
24 | CC(C)(C)OCC1COC(c2cccc(Nc3ncc(Cl)c(NC4CC4)n3)c2)O1 (stereo not drawn) [Example 95] | 2.76 | 4.08 |  |  | 
25 | CCCOCC1COC(c2cccc(Nc3ncc(Cl)c(NC4CC4)n3)c2)O1 (stereo not drawn) [Example 96] | 2.51 | 3.79 |  |  | 
26 | CC1CCOC(c2cccc(Nc3ncc(Cl)c(NC4CC4)n3)c2)O1 (stereo not drawn) [Example 97] | 2 | 3.25 |  |  | 
27 | CC1OC(c2cccc(Nc3ncc(Cl)c(NC4CC4)n3)c2)OC(C)C1C (stereo not drawn) [Example 98] | 2.77 | 4.21 |  |  | 
28 | Clc1cnc(Nc2cccc(C3OCC(Cl)CO3)c2)nc1NC1CC1 (stereo not drawn) [Example 99] | 2.15 | 3.33 |  |  | 
29 | CC1(C)CCOC(c2cccc(Nc3ncc(Cl)c(NC4CC4)n3)c2)O1 (stereo not drawn) [Example 100] | 2.22 | 3.57 |  |  | 
30 | CC1COC(c2cccc(Nc3ncc(Cl)c(NC4CC4)n3)c2)OC1 (stereo not drawn) [Example 101] | 2.1 | 3.35 |  |  | 
31 | CC1(C)CC(C)(C)OC(c2cccc(Nc3ncc(Cl)c(NC4CC4)n3)c2)O1 [Example 102] | 2.86 | 4.32 |  |  | 
32 | Clc1cnc(Nc2cccc(C3OCC4(CCC4)CO3)c2)nc1NC1CC1 [Example 103] | 2.6 | 3.62 |  |  | 
33 | COCC1COC(c2cccc(Nc3ncc(Br)c(NC4CC4)n3)c2)O1 (stereo not drawn) [Example 104] | 1.9 | 3.02 |  |  | 
34 | COCC1COC(c2cccc(Nc3ncc(C(F)(F)F)c(NC4CCC4)n3)c2)O1 (stereo not drawn) [Example 106] | 3.22 | 3.77 |  |  | 
35 | C=CCOCC1COC(c2cccc(Nc3ncc(Br)c(NC4CC4)n3)c2)O1 (stereo not drawn) [Example 107] | 2.43 |  | 2.01 |  | 
36 | C=CCOCC1COC(c2cccc(Nc3ncc(C(F)(F)F)c(NC4CC4)n3)c2)O1 (stereo not drawn) [Example 108] | 3.35 | 3.79 |  |  | 
37 | C=CCOCC1COC(c2cccc(Nc3ncc(C(F)(F)F)c(NC4CCC4)n3)c2)O1 (stereo not drawn) [Example 109] | 3.84 | 4.35 |  |  | 
38 | Brc1cnc(Nc2cccc(C3OC4COCC4O3)c2)nc1NC1CC1 (stereo not drawn) [Example 110] |  | 2.66[c] |  |  | 
39 | FC(F)(F)c1cnc(Nc2cccc(C3OC4COCC4O3)c2)nc1NC1CC1 (stereo not drawn) [Example 111] |  | 2.87 | 1.94 |  | 
40 | FC(F)(F)c1cnc(Nc2cccc(C3OC4COCC4O3)c2)nc1NC1CCC1 (stereo not drawn) [Example 112] | 2.79 | 3.37 |  |  | 
41 | CCC1COC(c2cccc(Nc3ncc(C(F)(F)F)c(NC4CCC4)n3)c2)O1 (stereo not drawn) [Example 113] | 4.06 | 4.56 |  |  | 
42 | COCC1COC(c2cccc(Nc3ncc(Cl)c(NC4CCC4)n3)c2)O1 (stereo not drawn) [Example 114] | 2.09 | 3.42 |  |  | 
43 | COCC1COC(c2cccc(Nc3ncc(Br)c(NC4CCC4)n3)c2)O1 (stereo not drawn) [Example 115] | 2.19 | 3.61 |  |  | 
44 | C=CCOCC1COC(c2cccc(Nc3ncc(Cl)c(NC4CCC4)n3)c2)O1 (stereo not drawn) [Example 116] | 2.59 | 4.07 |  |  | 
45 | C=CCOCC1COC(c2cccc(Nc3ncc(Br)c(NC4CCC4)n3)c2)O1 (stereo not drawn) [Example 117] | 2.77 | 4.24 |  |  | 
46 | Clc1cnc(Nc2cccc(C3OC4COCC4O3)c2)nc1NC1CCC1 (stereo not drawn) [Example 118] | 1.77 | 3.04 |  |  | 

Row | SMILES | log p [b] (pH 2.7) | log p [c] (pH 7.8) | log p [a] | log p (pH 2.7) | log p (pH 7.8)
47 | Brc1cnc(Nc2cccc(C3OC4COCC4O3)c2)nc1NC1CCC1 (stereo not drawn) [Example 119] | 1.91 | 3.23 |  |  | 
48 | CC(C)(C)C1CCOC(c2cccc(Nc3ncc(Br)c(NC4CC4)n3)c2)O1 (stereo not drawn) [Example 120] | 3.34 | 4.7 |  |  | 
49 | CC(C)(C)C1CCOC(c2cccc(Nc3ncc(Cl)c(NC4CC4)n3)c2)O1 (stereo not drawn) [Example 121] | 3.16[b] |  |  |  | 
50 | CC(C)(C)C1CCOC(c2cccc(Nc3ncc(C(F)(F)F)c(NC4CC4)n3)c2)O1 (stereo not drawn) [Example 122] | 4.44 | 4.82 |  |  | 
51 | Clc1cnc(Nc2cccc(C3OCC4(CC4)CO3)c2)nc1NC1CC1 [Example 123] | 2.09 | 3.32 |  |  | 
52 | CC1CC(C(F)(F)F)OC(c2cccc(Nc3ncc(Cl)c(NC4CC4)n3)c2)O1 (stereo not drawn) [Example 124] | 2.84[b] |  |  |  | 
53 | CCOC1COC(c2cccc(Nc3ncc(Cl)c(NC4CC4)n3)c2)OC1 (stereo not drawn) [Example 125] | 2.07 | 3.27 |  |  | 
54 | Clc1cnc(Nc2cccc(C3OCCCCO3)c2)nc1NC1CC1 [Example 126] | 2.14 | 3.48 |  |  | 
55 | Clc1cnc(Nc2cccc(C3OCCCS3)c2)nc1NC1CC1 (stereo not drawn) [Example 127] | 2.1 | 3.33 |  |  | 
56 | Fc1ccc(Nc2ncc(Cl)c(NC3CC3)n2)cc1C1OCCO1 [Example 128] | 1.75 | 2.88 |  |  | 
57 | CC1CC1Nc1nc(Nc2cccc(C3OCCO3)c2)ncc1C(F)(F)F (stereo not drawn) [Example 129] | 3.03 | 3.58 |  |  | 
58 | COCC1COC(c2cccc(Nc3ncc(C(F)(F)F)c(NC4CC4C)n3)c2)O1 (stereo not drawn) [Example 130] |  |  |  | 3.18 | 3.7
59 | CC1CC1Nc1nc(Nc2cccc(C3OCCO3)c2)ncc1Br (stereo not drawn) [Example 131] |  |  |  |  | 3.33[c]
60 | COCC1COC(c2cccc(Nc3ncc(Br)c(NC4CC4C)n3)c2)O1 (stereo not drawn) [Example 132] |  |  |  | 2.19 | 3.52
61 | CC1CC1Nc1nc(Nc2cccc(C3OCCCO3)c2)ncc1Br (stereo not drawn) [Example 133] |  |  |  | 2.18 | 3.53
62 | C#CCNc1nc(Nc2cccc(C3OCCO3)c2)ncc1Cl [Example 134] |  |  |  | 1.58 | 2.37
63 | Clc1cnc(Nc2ccc(C3OCCCO3)cc2)nc1NC1CC1 [Example 135] |  |  |  | 1.72 | 2.82
64 | COc1ccc(Nc2ncc(C(F)(F)F)c(NC3CC3)n2)cc1C1OCCCO1 [Example 136] |  |  |  | 2.38 | 3.18
65 | COc1ccc(Nc2ncc(Br)c(NC3CC3)n2)cc1C1OCCO1 [Example 138] |  |  |  | 1.5 | 2.7
66 | COc1ccc(Nc2ncc(Br)c(NC3CCC3)n2)cc1C1OCCO1 [Example 139] |  |  |  | 1.79 | 3.29
67 | Fc1ccc(Nc2ncc(Br)c(NC3CC3)n2)cc1C1OCCO1 [Example 141] |  |  |  | 1.89 | 2.98
